{
  "source": "paper PMC6934184",
  "about": "“Selective DNA-PKcs inhibition extends the therapeutic index of localized radiotherapy and chemotherapy” (The Journal of Clinical Investigation, 2019)",
  "target": "T1, MAP4K5 (KHS1) (Homo sapiens, UniProt Q9Y4K4)",
  "T1 construct": "purchased Thermo Fisher Scientific (Life Technologies) SelectScreen",
  "T1 sequence (Q9Y4K4 whole entry)": "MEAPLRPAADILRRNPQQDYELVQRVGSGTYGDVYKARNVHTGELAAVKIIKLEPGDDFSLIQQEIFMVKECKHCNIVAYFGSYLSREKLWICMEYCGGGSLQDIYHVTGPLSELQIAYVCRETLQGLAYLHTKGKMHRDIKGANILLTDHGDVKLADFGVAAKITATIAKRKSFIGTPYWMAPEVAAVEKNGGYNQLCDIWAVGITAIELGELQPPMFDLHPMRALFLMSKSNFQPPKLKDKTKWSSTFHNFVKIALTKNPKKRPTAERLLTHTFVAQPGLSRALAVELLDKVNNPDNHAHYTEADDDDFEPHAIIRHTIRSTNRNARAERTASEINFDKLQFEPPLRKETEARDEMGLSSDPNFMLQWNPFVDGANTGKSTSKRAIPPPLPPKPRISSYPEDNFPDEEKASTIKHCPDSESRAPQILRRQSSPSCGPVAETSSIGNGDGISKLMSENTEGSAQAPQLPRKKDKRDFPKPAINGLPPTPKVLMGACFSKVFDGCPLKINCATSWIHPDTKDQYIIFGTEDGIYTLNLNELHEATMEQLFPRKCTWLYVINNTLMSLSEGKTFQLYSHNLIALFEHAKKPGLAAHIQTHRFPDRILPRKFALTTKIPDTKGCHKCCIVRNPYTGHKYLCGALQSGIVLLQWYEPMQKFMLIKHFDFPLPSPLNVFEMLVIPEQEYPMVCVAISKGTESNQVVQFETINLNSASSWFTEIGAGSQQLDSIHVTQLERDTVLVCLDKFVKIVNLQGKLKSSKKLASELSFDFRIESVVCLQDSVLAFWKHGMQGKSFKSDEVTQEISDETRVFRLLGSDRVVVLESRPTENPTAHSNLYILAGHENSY",
  "assay": "SelectScreen Z'LYTE",
  "assay_type": "biochemical",
  "procedure,_shortened": "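SelectScreen broad panel; activity (Z'LYTE, Adapta) plus binding formats. ATP: Km app for CSF1R Z'LYTE; 10 for CAMK1 Adapta. Readout = % per kinase.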",
  "data": [
    {"smiles": "CN(C(=O)CN1CCOCC1)c1ccc2sc3c(-c4cccc5c(=O)cc(N6CC7CCC(C6)O7)oc45)cccc3c2c1", "note": "[NU5455]", "values": [
      {"measurement": "inhibition at 1 µM", "value": -2, "unit": "%"}
    ]}
  ]
}
